According to patent US11028090B2 (Dong Wha Pharm. Co., Ltd., priority 2017, dated 2021):
“And” between values parts separate entries of the source, which are not always exact repeats. Identical values can stand only once. Counter-ions that a name gives are not always drawn. Like-named read-outs stand apart in the source and are kept apart here.

Assays:
[1] = tested on: acute myelogenous leukemia cells (MV-4-11 cells); experiment: Cytotoxicity to acute myelogenous leukemia cells (MV-4-11 cells), CCK-8; settings: Homo sapiens, MV4-11, 72 h
Protocol: The following experiment was performed to evaluate the cytotoxicity of [1,2,4]triazolo[4,3-a]quinoxaline derivative according to the present invention to acute myelogenous leukemia cells (MV-4-11 cells).
Acute myelogenous leukemia cells (MV-4-11 cells) were distributed in a 96 well plate at the density of 5×10^3 cells/well. The plated cells were treated with the compounds of the present invention dissolved in DMSO at the different concentrations ranging from 0.01 μM to 10 μM. 72 hours later, the activities of the compounds were determined using CCK-8 reagent.

[2] = target: BRD4 (BD1+BD2) bromodomain (Homo sapiens (Human), UniProt O60885); experiment: BRD4 binding inhibition (AlphaScreen, GST-BRD4 vs tetraacetylated histone H4 peptide)
Outline: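 GST-BRD4 (BD1+BD2) and biotinylated tetraacetyl-histone H4 peptide, each at 100 nM in HEPES pH 7.4 buffer with BSA and DTT, were combined with compound. Glutathione acceptor and streptavidin donor beads were added, then incubated 30 min at room temperature in the dark. Read-out was AlphaScreen signal.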

[3] = read-out: MV-4-11 Cytotoxicity IC50
[4] = GST-BRD4 (BD1+BD2) / biotinylated acetyl-histone H4 (Lys5,8,12,16) peptide, read-out: IC50, BRD4 binding inhibition
[5] = GST-BRD4 (BD1+BD2) vs biotinylated acetyl-histone H4 peptide, AlphaScreen, read-out: BRD4 IC50

SMILES	IC50 ([1]; read-out: IC50, cytotoxicity against acute myelogenous leukemia cells)	IC50 [1, 3]	IC50 [2, 4]	IC50 [2, 5]
COc1cc2nc(NCCCCNC(=O)CC(C)C)c3nnc(C)n3c2cc1NC(=O)NC(C)C [Example 561, N-{4-[8-(3-isopropyl-ureido)-7-methoxy-1-methyl-[1,2,4]triazolo[4,3-a]quinoxaline-4-ylamino]-butyl}-3-methyl-butyramide]	≤ 200 nM	60 nM	–	–
Cc1nnc2c(NCCCCNC(=O)CC(C)C)nc3cc(NS(=O)(=O)C(C)C)ccc3n12 [Example 259, 3-methyl-N-{4-[1-methyl-7-(propane-2-sulfonylamino)-[1,2,4]triazolo[4,3-a]quinoxaline-4-ylamino]-butyl}-butyramide]	–	339 nM	–	–
Cc1noc(C)c1-c1ccc2nc(NCCCCNC(=O)OC(C)(C)C)c3nnc(C)n3c2c1 [Example 578, {4-[8-(3,5-dimethyl-isoxazol-4-yl)-1-methyl-[1,2,4]triazolo[4,3-a]quinoxaline-4-ylamino]-butyl}-carbamic acid-tert-butylester]	–	–	≤ 50 nM	30 nM
Cc1nnc2c(NCCCCNC(=O)OC(C)(C)C)nc3ccc(F)cc3n12 [Example 47, [4-(8-fluoro-1-methyl-[1,2,4]triazolo[4,3-a]quinoxaline-4-ylamino)-butyl]-carbamic acid-tert-butylester]	–	–	≤ 50 nM	42 nM
Cc1nnc2c(NCCCCNC(=O)OC(C)(C)C)nc3ccc(C(=O)NC(C)C)cc3n12 [Example 532, [4-(8-isopropylcarbamoyl-1-methyl-[1,2,4]triazolo[4,3-a]quinoxaline-4-ylamino)-butyl]-carbamic acid-tert-butylester]	–	–	–	75 nM
Cc1nnc2c(NCCCCNC(=O)[C@H](O)C(C)C)nc3cc(F)c(F)cc3n12 [Example 38, N-[4-(7,8-difluoro-1-methyl-[1,2,4]triazolo[4,3-a]quinoxaline-4-ylamino)-butyl]-2-(R)-hydroxy-3-methyl-butyramide]	–	–	–	97 nM
COc1ccc2c(c1)nc(NCCCCNC(=O)N(C)C)c1nnc(C)n12 [Example 334, 3-[4-(7-methoxy-1-methyl-[1,2,4]triazolo[4,3-a]quinoxaline-4-ylamino)-butyl]-1,1-dimethyl-urea]	–	–	–	60 nM
COc1cccc2c1nc(NCCCCN)c1nnc(C)n12 [Example 118, N^1-(6-methoxy-1-methyl-[1,2,4]triazolo[4,3-a]quinoxaline-4-yl)-butane-1,4-diamine dihydrochloride]	–	–	–	54 nM
COc1cc2nc(NCCCCNC(=O)CC(C)C)c3nnc(C)n3c2c(OC)c1OC [Example 488, 3-methyl-N-[4-(7,8,9-trimethoxy-1-methyl-[1,2,4]triazolo[4,3-a]quinoxaline-4-ylamino)-butyl]-butyramide]	–	–	≤ 50 nM	35 nM
Cc1nnc2c(NCCCCN)nc3cc(OC(F)(F)F)ccc3n12 [Example 270, N^1-(1-methyl-7-trifluoromethoxy-[1,2,4]triazolo[4,3-a]quinoxaline-4-yl)-butane-1,4-diamine ditrifluoroacetic acid]	–	–	–	85 nM
COc1ccc2c(nc(NCCCCN)c3nnc(C)n32)c1Cl [Example 460, dihydrochloride]	–	–	≤ 50 nM	12 nM
COc1ccc2c(c1)nc(NCCCCNC(=O)COC(C)=O)c1nnc(C)n12 [Example 303, acetic acid-[4-(7-methoxy-1-methyl-[1,2,4]triazolo[4,3-a]quinoxaline-4-ylamino)-butylcarbamoyl]-methylester]	–	–	–	63 nM
Cc1noc(C)c1-c1ccc2c(c1)nc(NCCCCNC(=O)OC(C)(C)C)c1nnc(C)n12 [Example 583, {4-[7-(3,5-dimethyl-isoxazol-4-yl)-1-methyl-[1,2,4]triazolo[4,3-a]quinoxaline-4-ylamino]-butyl}-carbamic acid-tert-butylester]	–	–	≤ 10 nM	5 nM
Cc1nnc2c(NCCCCNC(=O)Nc3ccccc3)nc3ccc(F)cc3n12 [Example 53, 1-[4-(8-fluoro-1-methyl-[1,2,4]triazolo[4,3-a]quinoxaline-4-ylamino)-butyl]-3-phenyl-urea]	–	–	–	60 nM
Cc1nnc2c(NCCCCNC(=O)[C@H](O)C(C)C)nc3cc(OCCN4CCOCC4)ccc3n12 [Example 434, 2-(R)-hydroxy-N-{4-[7-(2-morpholine-4-yl-ethoxy)-1-methyl-[1,2,4]triazolo[4,3-a]quinoxaline-4-ylamino]-butyl}-3-methyl-butyramide]	–	–	≤ 50 nM	21 nM
Cc1noc(C)c1-c1ccc2c(c1)nc(NCCCCNC(=O)[C@H](O)C(C)C)c1nnc(C)n12 [Example 586, N-{4-[7-(3,5-dimethyl-isoxazol-4-yl)-1-methyl-[1,2,4]triazolo[4,3-a]quinoxaline-4-ylamino]-butyl}-2-(R)-hydroxy-3-methyl-butyramide]	–	–	≤ 50 nM	24 nM

SMILES	IC50 ([1]; read-out: IC50, cytotoxicity against acute myelogenous leukemia cells)	IC50 [1, 3]	IC50 [2, 4]	IC50 [2, 5]
COc1cc2nc(NCCCCCNC(=O)OC(C)(C)C)c3nnc(C)n3c2cc1OC [Example 642, [5-(7,8-dimethoxy-1-methyl-[1,2,4]triazolo[4,3-a]quinoxaline-4-ylamino)-pentyl]-carbamic acid-tert-butylester]	–	–	–	56 nM
CCC(C)CC(=O)NCCCCNc1nc2c(OC)cc(OC)c(OC)c2n2c(C)nnc12 (stereo not drawn) [Example 489, 3-methyl-pentanoic acid-[4-(6,8,9-trimethoxy-1-methyl-[1,2,4]triazolo[4,3-a]quinoxaline-4-ylamino)-butyl]-amide]	–	–	≤ 50 nM	30 nM
COc1cc2nc(NCCCCC(=O)NC(C)C)c3nnc(C)n3c2cc1OC [Example 647, 5-(7,8-dimethoxy-1-methyl-[1,2,4]triazolo[4,3-a]quinoxaline-4-ylamino)-pentanoic acid-isopropylamide]	–	–	≤ 50 nM	29 nM
Cc1ccc2nc(NCCCCNC(=O)OC(C)(C)C)c3nnc(C)n3c2c1 [Example 40, [4-(1,8-dimethyl-[1,2,4]triazolo[4,3-a]quinoxaline-4-ylamino)-butyl]-carbamic acid-tert-butylester]	–	–	–	69 nM
COc1cc2c(cc1C)nc(NCCCCNC(=O)c1ccccc1)c1nnc(C)n12 [Example 154, N-[4-(8-methoxy-1,7-dimethyl-[1,2,4]triazolo[4,3-a]quinoxaline-4-ylamino)-butyl]-benzamide]	–	–	–	78 nM
Cc1ccc(C(=O)NCCCCNc2nc3ccccc3n3c(C)nnc23)c(Cl)n1 [Example 21, 2-chloro-6-methyl-N-[4-(1-methyl-[1,2,4]triazolo[4,3-a]quinoxaline-4-ylamino)-butyl]-nicotinamide]	–	–	–	57 nM
Cc1nnc2c(NCCCCNC(=O)[C@@H](NC(=O)[C@H](C)O)C(C)C)nc3cc(N4CCOCC4)ccc3n12 [Example 504, (S)-2-(2-(S)-hydroxy-propionylamino)-3-methyl-N-[4-(1-methyl-7-morpholine-4-yl-[1,2,4]triazolo[4,3-a]quinoxaline-4-ylamino)-butyl]-butyramide hydrochloride]	–	–	≤ 50 nM	34 nM
COc1cc2nc(NCCCCNC(=O)[C@H](O)C(C)C)c3nnc(C)n3c2cc1C(F)(F)F [Example 478, 2-(R)-hydroxy-N-[4-(7-methoxy-1-methyl-8-trifluoromethyl-[1,2,4]triazolo[4,3-a]quinoxaline-4-ylamino)-butyl]-3-methyl-butyramide]	–	–	≤ 50 nM	44 nM
COc1ccc2c(c1)nc(NCCCCNC(=O)C(C)(C)OC(C)=O)c1nnc(C)n12 [Example 296, acetic acid-1-[4-(7-methoxy-1-methyl-[1,2,4]triazolo[4,3-a]quinoxaline-4-ylamino)-butylcarbamoyl]-1-methyl-ethylester]	–	–	≤ 50 nM	96 nM and 27 nM
COc1c(C)ccc2c1nc(NCCCCNC(=O)c1ccccc1F)c1nnc(C)n12 [Example 139, 2-fluoro-N-[4-(6-methoxy-1,7-dimethyl-[1,2,4]triazolo[4,3-a]quinoxaline-4-ylamino)-butyl]-benzamide]	–	–	≤ 50 nM	40 nM
COCCn1c(-c2ccc3c(c2)nc(NCCCCNC(=O)CC(C)C)c2nnc(C)n23)nc2ccccc21 [Example 241, N-(4-{7-[1-(2-methoxy-ethyl)-1H-benzoimidazole-2-yl]-1-methyl-[1,2,4]triazolo[4,3-a]quinoxaline-4-ylamino}-butyl)-3-methyl-butyramide]	–	–	≤ 10 nM	7 nM
Cc1nnc2c(NCCCCNC(=O)c3ccc(Cl)nc3Cl)nc3ccccc3n12 [Example 19, 2,6-dichloro-N-[4-(1-methyl-[1,2,4]triazolo[4,3-a]quinoxaline-4-ylamino)-butyl]-nicotinamide]	–	–	≤ 50 nM	36 nM
Cc1noc(C)c1-c1ccc2c(c1)nc(NCCCCNC(=O)[C@@H](O)C(C)C)c1nnc(C)n12 [Example 587, N-{4-[7-(3,5-dimethyl-isoxazol-4-yl)-1-methyl-[1,2,4]triazolo[4,3-a]quinoxaline-4-ylamino]-butyl}-2-(S)-hydroxy-3-methyl-butyramide]	–	–	≤ 10 nM	7 nM
COc1ccc2c(c1)nc(NCCCCNC(=O)[C@@H](OC)C(C)C)c1nnc(C)n12 [Example 301, 2-(S)-methoxy-N-[4-(7-methoxy-1-methyl-[1,2,4]triazolo[4,3-a]quinoxaline-4-ylamino)-butyl]-3-methyl-butyramide]	–	–	≤ 50 nM	16 nM
CCNC(=O)NCCCCNc1nc2cc(OCCOC)ccc2n2c(C)nnc12 [Example 423, 1-ethyl-3-{4-[7-(2-methoxy-ethoxy)-1-methyl-[1,2,4]triazolo[4,3-a]quinoxaline-4-ylamino]-butyl}-urea]	–	–	≤ 50 nM	27 nM
Cc1cccc(C)c1C(=O)NCCCCNc1nc2ccccc2n2c(C)nnc12 [Example 13, 2,6-dimethyl-N-[4-(1-methyl-[1,2,4]triazolo[4,3-a]quinoxaline-4-ylamino)-butyl]-benzamide]	–	–	–	57 nM
